Assays:
Assay type in all cases: in vivo, mouse
[1] = system: pulmonary fibrosis model mice (intratracheal bleomycin); assay: Lung weight in bleomycin-induced pulmonary fibrosis model mice, preventive dosing (Example 1); settings: male ICR mice, bleomycin 1.5 mg/kg intratracheal, lungs at day 21, FIG. 1; for lung weight as compared to the normal group: oral from the day after exposure, compound A 50 mg/kg/day, losartan 50 mg/kg/day, pirfenidone 400 mg/kg/day
Experimental: (§1) 6-week-old male ICR mice (Japan SLC, Inc.) were exposed to bleomycin (Nippon Kayaku Co., Ltd.) (1.5 mg/kg) dissolved in physiological saline in the trachea to prepare pulmonary fibrosis model mice.
(§2) Investigation was conducted in mice not exposed to bleomycin (exposed to physiological saline in the trachea) in the normal group (6 mice), and pulmonary fibrosis model mice exposed to bleomycin in the trachea divided into 4 groups (control, compound A 50 mg/kg/day, losartan 50 mg/kg/day, and pirfenidone 400 mg/kg/day; 10 mice in each group). From the day after exposure to bleomycin, a 0.5% aqueous solution of methylcellulose was orally administered (administered twice a day) to the normal group and the control group, the sample solution of compound A prepared above was orally administered (administered once a day) to the compound A administration group, the sample solution of losartan prepared above was orally administered (administered once a day) to the losartan administration group, and the sample solution of pirfenidone prepared above was orally administered (administered twice a day) to the pirfenidone administration group, respectively. Twenty-one days after the bleomycin exposure, the mice were anesthetized and whole lung tissues were extracted.
After washing the lung tissue extracted from the mouse with physiological saline, water was removed with a filter paper, and the wet weight was measured.

[2] = system: pulmonary fibrosis model mice (intratracheal bleomycin); assay: Amount of hydroxyproline in the lungs of bleomycin-induced pulmonary fibrosis model mice, preventive dosing (Example 1); settings: preventive: oral from the day after bleomycin exposure, FIG. 2; for hydroxyproline in the lung as compared to the control group: compound A 50 mg/kg/day, losartan 50 mg/kg/day, lungs at day 21, Dunnett test
Experimental: as §1, §2
The lung tissue extracted from the mouse was homogenized in a PBS solution, then mixed with an equal volume of 12N hydrochloric acid in a tube, and incubated at 110° C. for 20 to 24 hours. After the incubation, the solution was volatilized by opening the tube and continuing the incubation. […] 10 μL of the sample was added with 100 μL of chloramine T solution (1.4% chloramine T, 10% n-propanol, 80% citrate acetate buffer) and incubated at room temperature for 20 minutes, then added with 100 μL of Ehrlich's reagent (1 M p-dimethylamino benzaldehyde, 20% perchloric acid, 50% n-propanol) and incubated at 65° C. for 15 minutes, and the absorbance at 550 nm was measured to quantify the amount of hydroxyproline.

[3] = system: pulmonary fibrosis model mice (intratracheal bleomycin); assay: Amount of hydroxyproline in the lungs of bleomycin-induced pulmonary fibrosis model mice, therapeutic dosing (Example 2); settings: therapeutic: oral from the 7th day after bleomycin exposure; compound A 50 mg/kg/day, losartan 50 mg/kg/day, pirfenidone 400 mg/kg/day; lungs at day 21; Dunnett test; FIG. 3
Experimental: Model mice were prepared in the same manner as in Example 1.
as §2, with “From the 7th day after” for “From the day after”
The amount of hydroxyproline in the mice was measured by the same method as in Example 1.

Compound | lung weight as compared to the normal group [1] | hydroxyproline in the lung as compared to the control group [2] | hydroxyproline in the lung as compared to the control group [3] | lung weight as compared with the control group ([1]; oral 50 mg/kg/day once a day from the day after exposure, Dunnett test p<0.05) | decrease in hydroxyproline in the lung relative to the losartan administration group ([2]; compound A 50 mg/kg/day vs losartan 50 mg/kg/day, day 21)
CCCCc1nc(Cl)c(CO)n1Cc1ccc(-c2ccccc2-c2nn[nH]n2)cc1 [losartan] | significant increase in lung weight | significant decrease in hydroxyproline in the lung | no significant difference | – | –
Cc1ccc(=O)n(-c2ccccc2)c1 [pirfenidone] | significant increase in lung weight | – | no significant difference | – | –
CCCc1nc(C(C)C)n(-c2ncc(OCC)cn2)c(=O)c1Cc1ccc(-c2ccccc2-c2noc(=O)[nH]2)nc1 [compound A, 3-[2-(5-{[1-(5-ethoxypyrimidin-2-yl)-2-isopropyl-6-oxo-4-propyl-1,6-dihydropyrimidin-5-yl]methyl}pyridin-2-yl)phenyl]-1,2,4-oxadiazol-5(4H)-one] | no significant increase in lung weight | significant decrease in hydroxyproline in the lung | significant decrease in hydroxyproline in the lung | significant decrease in lung weight | larger decrease than the losartan administration group
